Experiment: method code SF-AS, from DOI: 10.1135/cccc19851642

| SMILES | logP |
| --- | --- |
| CCOC(=O)C(=Cc1ccc([N+](=O)[O-])o1)C(=O)OCC | 2.5 |
| COC(=O)/C(C#N)=C/c1ccc(C)o1 | 2.09 |
| COC(=O)C(C#N)=Cc1ccc(I)o1 | 2.75 |
| CCCCCCCCCCCC(C)NC(=O)C=Cc1ccc([N+](=O)[O-])o1 (stereo not given) | 3.7 |
| CCOC(=O)/C=C/c1ccc([N+](=O)[O-])o1 | 2.1 |
| CCCNC(=O)C=Cc1ccc([N+](=O)[O-])o1 | 1.86 |
| COC(=O)C(C#N)=Cc1ccc(Br)o1 | 2.41 |
| CCC(C)NC(=O)C=Cc1ccc([N+](=O)[O-])o1 (stereo not given) | 2.28 |
| CSc1ccc(C=C(C#N)C#N)o1 | 2.45 |
| CC(C)(C)NC(=O)C=Cc1ccc([N+](=O)[O-])o1 | 2.33 |
| CCCCNC(=O)C=Cc1ccc([N+](=O)[O-])o1 | 2.36 |
| CC(C)OC(=O)/C=C/c1ccc([N+](=O)[O-])o1 | 2.64 |
| CC(C)NC(=O)/C=C/c1ccc([N+](=O)[O-])o1 | 1.8 |
| O=C(O)/C=C/c1ccc([N+](=O)[O-])o1 | 0.68 |
| NC(=O)/C=C/c1ccc([N+](=O)[O-])o1 | 0.65 |
| CC(C)(C)CNC(=O)C=Cc1ccc([N+](=O)[O-])o1 | 2.61 |
| N#CC(C#N)=Cc1ccc(I)o1 | 2.42 |
| O=[N+]([O-])/C=C/c1ccc([N+](=O)[O-])o1 | 1.3 |
| CC(C)COC(=O)/C=C/c1ccc([N+](=O)[O-])o1 | 3.14 |
| CCCCOC(=O)C=Cc1ccc([N+](=O)[O-])o1 | 2.83 |
| COC(=O)/C(C#N)=C/c1ccc(SC)o1 | 2.61 |
| CCCOC(=O)C=Cc1ccc([N+](=O)[O-])o1 | 2.67 |
| CNC(=O)C=Cc1ccc([N+](=O)[O-])o1 | 0.98 |
| O=[N+]([O-])c1ccc(C=CBr)o1 | 2.45 |
| CC(C)CNC(=O)C=Cc1ccc([N+](=O)[O-])o1 | 2.23 |
| CN(C)C(=O)/C=C/c1ccc([N+](=O)[O-])o1 | 0.82 |
| CCC(C)OC(=O)/C=C/c1ccc([N+](=O)[O-])o1 (stereo not given) | 3.09 |
| CCCCCOC(=O)C=Cc1ccc([N+](=O)[O-])o1 | 3.4 |
| CC(C)(C)OC(=O)C=Cc1ccc([N+](=O)[O-])o1 | 3.09 |
| CCNC(=O)C=Cc1ccc([N+](=O)[O-])o1 | 1.39 |
